Experimental data published in PubChem BioAssay AID192 (DTP/NCI, 2004).
Inconclusive results and toxic doses are left out. Rule for the calls: active = survival T/C of 150% or more; inactive = T/C below 125% in these data.

System: BDF1 mice, B16 melanoma ip, median survival T/C
Assay: NCI In Vivo Anticancer Drug Screen. Data for tumor model B16 Melanoma (intraperitoneal) in B6D2F1 (BDF1) mice
Conditions: endpoint: median survival time, higher = longer survival
Method in brief: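 Values are ratios of treated (T) to vehicle-control (C) measurements of survival or tumor size in tumor-bearing mice.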

[1] = dose: 25.0 mg/kg/injection, schedule: Q01DX009 (ip), vehicle: saline with Tween-80
[2] = dose: 50.0 mg/kg/injection, schedule: Q01DX009 (ip), vehicle: saline with Tween-80
[3] = dose: 100.0 mg/kg/injection, schedule: Q01DX009 (ip), vehicle: saline with Tween-80
[4] = dose: 12.5 mg/kg/injection, schedule: Q01DX009 (ip), vehicle: saline with Tween-80
[5] = dose: 200.0 mg/kg/injection, schedule: Q01DX009 (ip), vehicle: saline with Tween-80
[6] = dose: 25.0 mg/kg/injection, schedule: Q01DX009 (ip), vehicle: Klucel (hydroxypropylcellulose) (HPC)
[7] = dose: 100.0 mg/kg/injection, schedule: Q04DX003 (ip), vehicle: Klucel (hydroxypropylcellulose) (HPC)
[8] = dose: 200.0 mg/kg/injection, schedule: Q04DX003 (ip), vehicle: Klucel (hydroxypropylcellulose) (HPC)

Measured: T/C

C=CCC(OC(=O)c1ccc(Br)cc1)C1(C)OC1C(C)C1CC(O)(C(OC)OC)NC(=O)O1 (configuration not stated)
inactive: dose: 0.25 mg/kg/injection, schedule: Q01DX009 (ip), vehicle: saline + alcohol 100 % of control | dose: 0.5 mg/kg/injection, schedule: Q01DX009 (ip), vehicle: saline + alcohol 103 % of control | dose: 1.0 mg/kg/injection, schedule: Q01DX009 (ip), vehicle: saline + alcohol 93 % of control | dose: 2.0 mg/kg/injection, schedule: Q01DX009 (ip), vehicle: saline + alcohol 98 % of control | dose: 4.0 mg/kg/injection, schedule: Q01DX009 (ip), vehicle: saline + alcohol 90 % of control

O=S(=O)(Nc1cccc(C(F)(F)F)c1)c1ccccc1
inactive: [1] 108 % of control | [2] 101 % of control | [3] 97 % of control

BrCC[Se]c1ccccc1
inactive: dose: 6.25 mg/kg/injection, schedule: Q01DX009 (ip), vehicle: saline with Tween-80 103 % of control | [4] 95 % of control | [1] 96 % of control | [2] 104 % of control | [3] 89 % of control

CSCCC1NC(=O)C(C(C)=Nc2ccccc2)=C1O (configuration not stated)
inactive: [2] 100 % of control | [3] 96 % of control | [5] 95 % of control

CCCCNC(C)(C)C(SSSC(c1ccco1)C(C)(C)NCCCC)c1ccco1 (configuration not stated)
inactive: dose: 3.13 mg/kg/injection, schedule: Q01DX009 (ip), vehicle: carboxymethylcellulose (CMC) 102 % of control | dose: 6.25 mg/kg/injection, schedule: Q01DX009 (ip), vehicle: carboxymethylcellulose (CMC) 102 % of control | dose: 12.5 mg/kg/injection, schedule: Q01DX009 (ip), vehicle: carboxymethylcellulose (CMC) 95 % of control | [6] 91 % of control | dose: 25.0 mg/kg/injection, schedule: Q01DX009 (ip), vehicle: carboxymethylcellulose (CMC) 86 % of control

N#CSc1ccc(NN)cc1
inactive: dose: 6.25 mg/kg/injection, schedule: Q01DX009 (ip), vehicle: other 96 % of control | dose: 12.5 mg/kg/injection, schedule: Q01DX009 (ip), vehicle: other 114 % of control | dose: 25.0 mg/kg/injection, schedule: Q01DX009 (ip), vehicle: other 99 % of control

C=C1C(=O)OC2C1CC1OC2C(C)CCC/C(C)=C\CCC1(C)O (configuration not stated)
inactive: [4] 97 % of control | [1] 101 % of control | [2] 100 % of control | [3] 104 % of control

C[N+](C)(C)C.N=C=O.N=C=O.N=C=O.N=C=O.[Co+2]
inactive: dose: 12.5 mg/kg/injection, schedule: Q04DX003 (ip), vehicle: saline with Tween-80 97 % of control | dose: 25.0 mg/kg/injection, schedule: Q04DX003 (ip), vehicle: saline with Tween-80 90 % of control | dose: 50.0 mg/kg/injection, schedule: Q04DX003 (ip), vehicle: saline with Tween-80 92 % of control

Nc1n[n+](-c2ccc(Cl)cc2)no1
inactive: dose: 3.12 mg/kg/injection, schedule: Q01DX009 (ip), vehicle: water 102 % of control | dose: 6.25 mg/kg/injection, schedule: Q01DX009 (ip), vehicle: water 107 % of control | dose: 12.5 mg/kg/injection, schedule: Q01DX009 (ip), vehicle: water 109 % of control | dose: 50.0 mg/kg/injection, schedule: Q01DX009 (ip), vehicle: water 117 % of control

CC(=O)OCc1c(O)c2c(c(O)c1COC(C)=O)C(=O)C=CC2=O
inactive: dose: 6.25 mg/kg/injection, schedule: Q01DX009 (ip), vehicle: Klucel (hydroxypropylcellulose) (HPC) 94 % of control | dose: 12.5 mg/kg/injection, schedule: Q01DX009 (ip), vehicle: Klucel (hydroxypropylcellulose) (HPC) 91 % of control | [6] 89 % of control

COc1cc(C(=O)CC(O)(C(F)(F)F)C(F)(F)F)cc(OC)c1OC
inactive: dose: 50.0 mg/kg/injection, schedule: Q04DX003 (ip), vehicle: Klucel (hydroxypropylcellulose) (HPC) 100 % of control | [7] 110 % of control | [8] 97 % of control

CCc1cc(C)cc(OC(=O)Nc2ccccc2)c1
inactive: [3] 97 % of control | [5] 93 % of control | dose: 400.0 mg/kg/injection, schedule: Q01DX009 (ip), vehicle: saline with Tween-80 100 % of control

Cc1ccc(NC(=S)N(C)C)cc1Cl
inactive: dose: 100.0 mg/kg/injection, schedule: Q01DX009 (ip), vehicle: Klucel (hydroxypropylcellulose) (HPC) 100 % of control | [7] 104 % of control | dose: 200.0 mg/kg/injection, schedule: Q01DX009 (ip), vehicle: Klucel (hydroxypropylcellulose) (HPC) 88 % of control | [8] 90 % of control | dose: 400.0 mg/kg/injection, schedule: Q01DX009 (ip), vehicle: Klucel (hydroxypropylcellulose) (HPC) 88 % of control | dose: 400.0 mg/kg/injection, schedule: Q04DX003 (ip), vehicle: Klucel (hydroxypropylcellulose) (HPC) 95 % of control

O=NN(CCBr)C(=O)NC1CCCCC1
inactive: dose: 100.0 mg/kg/injection, schedule: Q01DX009 (ip), vehicle: gum acacia 105 % of control | dose: 200.0 mg/kg/injection, schedule: Q01DX009 (ip), vehicle: gum acacia 102 % of control | dose: 400.0 mg/kg/injection, schedule: Q01DX009 (ip), vehicle: gum acacia 90 % of control

O=S(=O)(c1ccc(Cl)cc1)c1ccc(Cl)cc1
inactive: dose: 100.0 mg/kg/injection, schedule: Q04DX003 (ip), vehicle: saline with Tween-80 100 % of control | dose: 200.0 mg/kg/injection, schedule: Q04DX003 (ip), vehicle: saline with Tween-80 97 % of control | dose: 400.0 mg/kg/injection, schedule: Q04DX003 (ip), vehicle: saline with Tween-80 100 % of control

CCOC(=O)N1CCN(CCCCCOc2ccccc2C2CCCCC2)CC1
inactive: [2] 103 % of control
